Here are results for 15 compounds from ChEMBL document CHEMBL3868609, “[2.2.1]-Bicyclic sultams as potent androgen receptor antagonists” (Bioorg Med Chem Lett, 2016).

Data set [1] addresses T1, Androgen receptor (Homo sapiens, UniProt P10275).
T1 sequence (P10275 whole entry): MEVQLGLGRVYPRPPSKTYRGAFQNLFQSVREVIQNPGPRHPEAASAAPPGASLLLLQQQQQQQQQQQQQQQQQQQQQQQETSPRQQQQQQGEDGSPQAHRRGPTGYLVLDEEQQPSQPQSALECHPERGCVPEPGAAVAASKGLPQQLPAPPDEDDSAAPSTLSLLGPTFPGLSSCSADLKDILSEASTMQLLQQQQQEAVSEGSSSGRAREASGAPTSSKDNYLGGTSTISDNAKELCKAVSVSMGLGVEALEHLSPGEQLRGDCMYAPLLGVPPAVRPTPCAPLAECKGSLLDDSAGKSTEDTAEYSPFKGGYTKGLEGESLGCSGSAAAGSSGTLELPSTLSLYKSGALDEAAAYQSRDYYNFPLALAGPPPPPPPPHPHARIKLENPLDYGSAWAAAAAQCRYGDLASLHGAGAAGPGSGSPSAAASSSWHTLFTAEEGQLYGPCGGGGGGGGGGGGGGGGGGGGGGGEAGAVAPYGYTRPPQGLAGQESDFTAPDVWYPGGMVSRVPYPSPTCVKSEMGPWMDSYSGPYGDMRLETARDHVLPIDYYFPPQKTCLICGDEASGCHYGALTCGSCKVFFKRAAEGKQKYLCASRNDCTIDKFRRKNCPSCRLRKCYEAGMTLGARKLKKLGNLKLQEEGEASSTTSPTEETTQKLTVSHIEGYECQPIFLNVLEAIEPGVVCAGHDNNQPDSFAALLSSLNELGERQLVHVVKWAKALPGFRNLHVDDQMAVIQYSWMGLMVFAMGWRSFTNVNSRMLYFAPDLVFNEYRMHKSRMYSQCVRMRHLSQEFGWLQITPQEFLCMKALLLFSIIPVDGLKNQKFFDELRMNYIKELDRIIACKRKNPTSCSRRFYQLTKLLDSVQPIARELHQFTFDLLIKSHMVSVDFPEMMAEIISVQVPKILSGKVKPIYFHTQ
In words: Displacement of [3H]DHT from androgen receptor in human MDA-MB-453 cells. It is filed as cell-based. In general terms: Displacement assays read how much labelled ligand stays bound in the presence of the test substance.

Data set [2] addresses T1, Androgen receptor. In words: Antagonist activity at androgen receptor in human MDA-MB-453 cells assessed as inhibition of testosterone-induced transactivation. In kind it is cell-based.
Data set [3] deals with Rattus norvegicus. Description: In vivo antagonist activity at androgen receptor in immature rat prostate weight model assessed as testosterone propionate-induced weight of seminal vesicles over full body weight at 15 mg/kg, po qd administered for 4 days relative to testosterone propionate treated control. More on the design: scale not given: the % may be the effect or the level left. It is filed as functional.

The nature of data set [4]: AUC (0 to 24 hrs) in BALB/c athymic mouse xenografted with bicalutamide-resistant human CWR22-BMSLD1 cells at 78 mg/kg, po. Conditions: in vivo. Further details: time < 24 hr, dose 78 mg/kg, route oral. In kind it is ADME, organism-based.
The subject of data set [5] is Rattus norvegicus. In words: In vivo antagonist activity at androgen receptor in immature rat prostate weight model assessed as testosterone propionate-induced weight of seminal vesicles over full body weight at 10 mg/kg, po qd administered for 4 days relative to testosterone propionate treated control. It is filed as functional. Further details: scale not given: the % may be the effect or the level left.

The nature of data set [6]: Plasma concentration in immature rat prostate weight model at 10 mg/kg, po qd administered for 4 days measured 2 hrs post last dose on day 4. In kind it is ADME, organism-based.
The test system of data set [7] is Rattus norvegicus. Description: In vivo antagonist activity at androgen receptor in immature rat prostate weight model assessed as testosterone propionate-induced weight of seminal vesicles over full body weight at 30 mg/kg, po qd administered for 4 days relative to testosterone propionate treated control. In kind it is functional. Further details: scale not given: the % may be the effect or the level left.

A short description of data set [8]: Plasma concentration in immature rat prostate weight model at 30 mg/kg, po qd administered for 4 days measured 2 hrs post last dose on day 4. In kind it is ADME, organism-based.
Data set [9] is described as follows: Plasma concentration in immature rat prostate weight model at 15 mg/kg, po qd administered for 4 days measured 2 hrs post last dose on day 4. It is filed as ADME, organism-based.
Data set [10] is described as follows: Antitumor activity against bicalutamide-resistant human CWR22-BMSLD1 cells xenografted in BALB/c athymic mouse assessed as tumor growth inhibition at 150 mg/kg, po qd for 20 days measured on last day of dosing relative to control. It is filed as functional. Conditions: 480 h, read-out: TGI. A general note: In xenograft studies the graft and the host belong to different species.

The next data set deals with Mus musculus. Description: Toxicity in BALB/c athymic mouse xenografted with bicalutamide-resistant human CWR22-BMSLD1 cells at 150 mg/kg, po qd for 20 days. In kind it is organism-based. To be noted: in vivo, 480 h.
Data set [11] deals with Rattus norvegicus. In words: In vivo antagonist activity at androgen receptor in immature rat prostate weight model assessed as testosterone propionate-induced weight of seminal vesicles over full body weight at 25 mg/kg, po qd administered for 4 days relative to testosterone propionate treated control. In kind it is functional. More on the design: scale not given: the % may be the effect or the level left.

The next data set deals with CWR22-BMSLD1. In words: Antitumor activity against bicalutamide-resistant human CWR22-BMSLD1 cells xenografted in BALB/c athymic mouse assessed as tumor stasis at 150 mg/kg, po qd for 20 days. In kind it is functional, organism-based.
Data set [12] in a line: Plasma concentration in immature rat prostate weight model at 25 mg/kg, po qd administered for 4 days measured 2 hrs post last dose on day 4. In kind it is ADME, organism-based.
Data set [13] can be described thus: Drug metabolism in mouse liver microsomes assessed as oxidative metabolite formation. It is filed as ADME. Background: Liver microsomes are vesicles of endoplasmic reticulum, rich in cytochrome P450 enzymes.

Active and inactive are the calls of the source. No cut-off for these calls is given here. A value given as a limit tells only on which side of the number the result lay.

Compound `C[C@@]12[C@@H]3CC[C@@H](C3)[C@@H]1CN(c1ccc(C#N)c(C(F)(F)F)c1)S2(=O)=O` displayed an inhibition constant Ki at Androgen receptor [1] of 3 nM. In addition, at Androgen receptor [2], the IC50 was 73 nM.

`N#Cc1ccc(N2C[C@H]3[C@H]4CC[C@H](C4)[C@@]3(C(N)=O)S2(=O)=O)cc1C(F)(F)F`: the Ki at Androgen receptor [1] was 3 nM. Further, in the data set on Rattus norvegicus [3], the Activity is reported as 55%. Besides, the IC50 on Androgen receptor [2] stood at 55 nM. In [4], this compound gave an AUC(0-t) at 24 h greater than 2 µM·h.

`CCS(=O)(=O)N[C@@H]1C[C@@]2(C)O[C@]1(C)[C@@H]1C(=O)N(c3ccc(C#N)c(C(F)(F)F)c3)C(=O)[C@@H]12`: in the data set on Rattus norvegicus [5], the Activity was 26%. In addition, the concentration at 2 h in [6] is 4000 nM.

`C[C@@]12[C@@H](CN(c3ccc(C#N)c(C(F)(F)F)c3)S1(=O)=O)[C@H]1C[C@H](O)[C@@H]2C1`: the Activity in the data set on Rattus norvegicus [7] is on record as 60%. On Androgen receptor [1], the inhibitory constant (Ki) is 3 nM. In addition, the concentration at 2 h in [8] is 790 nM. In addition, the IC50 on Androgen receptor [2] amounted to 106 nM. The AUC(0-t) at 24 h in data set [4] is greater than 2 µM·h.

In turn, `C[C@@]12[C@@H]3CC[C@@H](C3O)[C@@H]1CN(c1ccc(C#N)c(C(F)(F)F)c1)S2(=O)=O` (stereo in doubt; 15) displayed a Ki at Androgen receptor [1] of 106 nM. Moreover, the IC50 at Androgen receptor [2] is 444 nM.

`C[C@@]12[C@@H](CN(c3ccc(C#N)c(C(F)(F)F)c3)S1(=O)=O)[C@H]1C[C@H](F)[C@@H]2C1` yielded a Ki on Androgen receptor [1] of 8 nM. For the same compound, the Activity with Rattus norvegicus [3] was found to be 65%. Moreover, the concentration at 2 h in data set [9] amounted to 2800 nM. Further, the IC50 on Androgen receptor [2] amounted to 91 nM. In addition, in data set [4], the exposure AUC(0-t) at 24 h was greater than 2 µM·h.

With `CNC(=O)[C@@]12[C@@H]3CC[C@@H](C3)[C@@H]1CN(c1ccc(C#N)c(C(F)(F)F)c1)S2(=O)=O`, on Androgen receptor [1], the affinity, expressed as Ki, was 3 nM. Besides, the Activity in the data set on Rattus norvegicus [3] is 51%. The compound also displayed a concentration at 2 h in data set [9] of 7250 nM. Moreover, at Androgen receptor [2], the IC50 came to 44 nM. In addition, the AUC(0-t) at 24 h in [4] is greater than 2 µM·h.

Consider `C[C@@]12[C@@H]3CC[C@@H](C3=O)[C@@H]1CN(c1ccc(C#N)c(C(F)(F)F)c1)S2(=O)=O`, for which the affinity on Androgen receptor [1] corresponds to a Ki of 8 nM. At Androgen receptor [2], the IC50 was 67 nM.

As to `CC(O)(CS(=O)(=O)c1ccc(F)cc1)C(=O)Nc1ccc(C#N)c(C(F)(F)F)c1` (centres undefined) [BICALUTAMIDE], the inhibition in vivo at 150 mg/kg in data set [10] came out at 39%. The Activity is reported as 41% with Rattus norvegicus [5] and “Non-Toxic” in the data set on Mus musculus. Further, the concentration at 2 h in data set [6] turned out to be 9500 nM.

Take `C[C@@]12[C@H]3C[C@H]([C@H](O)C3)[C@@H]1CN(c1ccc(C#N)c(C(F)(F)F)c1)S2(=O)=O`: in the data set on Rattus norvegicus [7], the Activity is on record as 58%. In addition, on Androgen receptor [1], the affinity corresponds to a Ki of 28 nM. Besides, at Androgen receptor [2], the IC50 was 430 nM. Moreover, the AUC(0-t) at 24 h in [4] is greater than 2 µM·h.

Regarding `C[C@@]12[C@@H]3C=C[C@@H](C3)[C@@H]1CN(c1ccc(C#N)c(C(F)(F)F)c1)S2(=O)=O`, the inhibition in vivo at 150 mg/kg in data set [10] came out at 87%. Also, the inhibition constant (Ki) at Androgen receptor [1] was 2 nM. In addition, the Activity in the data set with Rattus norvegicus [11] is on record as 35%; in the data set with Mus musculus, “Non-Toxic”. Moreover, the result with CWR22-BMSLD1 was Active. In addition, the concentration at 2 h in [12] was 50 nM. The half-maximal inhibitory concentration (IC50) on Androgen receptor [2] amounted to 30 nM. The Drug metabolism result in data set [13] was “Metabolite_Detected”.

In turn, `N#Cc1ccc(N2C[C@@H]3[C@@H]([C@@H]4C=C[C@H]3C4)S2(=O)=O)cc1C(F)(F)F` had an inhibition constant (Ki) at Androgen receptor [1] of 12 nM. In addition, on Androgen receptor [2], the IC50 was 219 nM.

With `C[C@@]12[C@@H]3CC[C@@H](C3O)[C@@H]1CN(c1ccc(C#N)c(C(F)(F)F)c1)S2(=O)=O` (stereo in doubt; 17), the affinity on Androgen receptor [1], expressed as Ki, was 48 nM. In addition, the IC50 on Androgen receptor [2] stood at 327 nM.

Take `CNC(=O)[C@@]12[C@@H](CN(c3ccc(C#N)c(C(F)(F)F)c3)S1(=O)=O)[C@H]1C[C@H](F)[C@@H]2C1`: affinity at Androgen receptor [1] was put at a Ki of 5 nM. In the data set with Rattus norvegicus [3], the Activity stood at 30%. Further, in data set [9], the concentration at 2 h was 2900 nM. The IC50 at Androgen receptor [2] is 57 nM. In data set [4], the AUC(0-t) at 24 h was found to be 0.0031 µM·h.

Regarding `N#Cc1ccc(N2C[C@H]3[C@H]4CC[C@H](C4)[C@H]3S2(=O)=O)cc1C(F)(F)F`, the Ki at Androgen receptor [1] turned out to be 3 nM. Besides, the half-inhibitory concentration (IC50) at Androgen receptor [2] stood at 130 nM.

A word on the Ki: it is the equilibrium dissociation constant of an inhibitor or competing ligand from its target. What is called IC50 is the midpoint of a concentration-inhibition curve. A word on the AUC(0-t): it is the area under the concentration-time curve up to a stated or last time point.
